From ChEMBL document CHEMBL3886397, “Agent for treatment of eye diseases” (2015)

Target: Transitional endoplasmic reticulum ATPase (Mus musculus, UniProt Q01853)
Test: Inhibition Assay: Mouse VCP cDNA was added with a DNA sequence corresponding to histidine tag at the amino-terminal, subcloned into a baculovirus vector pVL1392 (BD Bioscience), and expressed in Sf-9 insect cells. The protein was purified with a nickel column (GE Healthcare). The concentration of the protein was adjusted to 0.25-0.5 ug/ml and the protein was stored in a solution containing 50 mM TrisCl pH 8.0, 5 mM EDTA, 10% glycerol, and 15 mM DTT. The ATPase activity was determined as follows. 500 ng of the purified VCP was mixed with 100 uM [gamma-32P]ATP (18.5 GBq/mmol) and the test substance in 20 uL of ATPase buffer (20 mM HEPES (pH7.4), 50 mM KCl, 5 mM MgCl2, 15 mM DTT), and incubated at 37° C. for 10 minutes.The enzyme reaction was stopped with addition of 200 uL of an ice-cold solution containing 7% TCA and 1 mM K2HPO4. 50ul of a solution containing 3.75% ammonium molybdate and 0.02M tungstate silicic/3 NH2SO4 was added, followed by 300 uL of […].

Chain of Transitional endoplasmic reticulum ATPase (Q01853 whole entry): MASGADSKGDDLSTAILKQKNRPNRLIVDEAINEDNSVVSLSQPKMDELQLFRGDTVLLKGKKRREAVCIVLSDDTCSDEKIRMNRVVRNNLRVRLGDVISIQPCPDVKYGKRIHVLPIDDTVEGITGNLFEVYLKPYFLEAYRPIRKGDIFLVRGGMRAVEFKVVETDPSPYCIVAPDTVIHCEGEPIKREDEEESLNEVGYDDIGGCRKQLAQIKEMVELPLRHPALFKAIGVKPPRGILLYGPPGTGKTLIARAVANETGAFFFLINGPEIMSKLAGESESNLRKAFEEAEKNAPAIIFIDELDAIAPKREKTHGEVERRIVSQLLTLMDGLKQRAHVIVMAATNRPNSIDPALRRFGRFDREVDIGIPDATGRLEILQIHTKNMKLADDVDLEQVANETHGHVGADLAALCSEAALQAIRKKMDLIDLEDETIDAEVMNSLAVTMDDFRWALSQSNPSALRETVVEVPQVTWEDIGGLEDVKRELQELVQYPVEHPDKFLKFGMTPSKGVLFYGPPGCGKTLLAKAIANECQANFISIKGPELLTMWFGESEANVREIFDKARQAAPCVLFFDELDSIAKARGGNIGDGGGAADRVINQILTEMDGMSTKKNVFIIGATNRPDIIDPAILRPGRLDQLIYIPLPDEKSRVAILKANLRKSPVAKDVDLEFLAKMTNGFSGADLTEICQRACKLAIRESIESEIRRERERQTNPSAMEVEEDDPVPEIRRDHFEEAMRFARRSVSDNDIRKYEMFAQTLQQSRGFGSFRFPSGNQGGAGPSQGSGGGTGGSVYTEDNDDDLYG

Row | SMILES | IC50
1 | CC(=O)c1ccc(-c2ccc(/N=N/c3cc(S(=O)(=O)O)c4ccccc4c3N)cn2)cc1 | 136 nM
2 | Nc1c(/N=N/c2ccc(-c3cc(C(F)(F)F)cc(C(F)(F)F)c3)nc2)cc(S(=O)(=O)O)c2ccccc12 | 2750 nM
